Experimental data: ChEMBL document CHEMBL1649565, “Besifloxacin, a novel fluoroquinolone, has broad-spectrum in vitro activity against aerobic and anaerobic bacteria” (Antimicrob Agents Chemother, 2009)
In brackets after ≈: the same amount, converted by molar mass. Activity calls are given as the source filed them. The rule behind the calls is not given here.

Assays:
[1] = test system: Enterobacter cloacae; assay: Antibacterial activity against Enterobacter cloacae assessed as percent susceptible isolates by CLSI M7-A7 method; format: functional
[2] = test system: Streptococcus oralis; assay: Antibacterial activity against Streptococcus oralis by CLSI M100-S18 method; format: functional
[3] = test system: Staphylococcus lugdunensis; assay: Antibacterial activity against Staphylococcus lugdunensis by CLSI M100-S18 method; format: functional
[4] = test system: Citrobacter freundii; assay: Antibacterial activity against Citrobacter freundii by CLSI M7-A7 method; format: functional
[5] = Antibacterial activity against Lancefield Streptococcus sp. 'group C' by CLSI M100-S18 method; format: functional
[6] = test system: Streptococcus pyogenes; assay: Antibacterial activity against Streptococcus pyogenes by CLSI M100-S18 method; format: functional
[7] = test system: Streptococcus pneumoniae; assay: Antibacterial activity against non-levofloxacin susceptible Streptococcus pneumoniae assessed as percent susceptible isolates by CLSI M100-S18 method; format: functional
[8] = test system: Streptococcus anginosus; assay: Antibacterial activity against Streptococcus anginosus by CLSI M100-S18 method; format: functional
[9] = test system: Streptococcus pneumoniae; assay: Antibacterial activity against levofloxacin-susceptible Streptococcus pneumoniae by CLSI M100-S18 method; format: functional
[10] = test system: Morganella morganii; assay: Antibacterial activity against Morganella morganii by CLSI M7-A7 method; format: functional
[11] = test system: Staphylococcus aureus; assay: Antibacterial activity against ciprofloxacin-susceptible and methicillin-resistant Staphylococcus aureus by CLSI M100-S18 method; format: functional
[12] = test system: Staphylococcus warneri; assay: Antibacterial activity against Staphylococcus warneri by CLSI M100-S18 method; format: functional
[13] = test system: Enterococcus faecalis; assay: Antibacterial activity against vancomycin- resistant Enterococcus faecalis by CLSI M100-S18 method; format: functional
[14] = test system: Streptococcus agalactiae; assay: Antibacterial activity against Streptococcus agalactiae by CLSI M100-S18 method; format: functional
[15] = test system: Staphylococcus aureus; assay: Antibacterial activity against ciprofloxacin-susceptible and methicillin-resistant Staphylococcus aureus assessed as percent susceptible isolates by CLSI M100-S18 method; format: functional
[16] = test system: Proteus mirabilis; assay: Antibacterial activity against Proteus mirabilis by CLSI M7-A7 method; format: functional
[17] = test system: Staphylococcus haemolyticus; assay: Antibacterial activity against Staphylococcus haemolyticus by CLSI M100-S18 method; format: functional
[18] = test system: Listeria monocytogenes; assay: Antibacterial activity against Listeria monocytogenes by CLSI M100-S18 method; format: functional
[19] = test system: Staphylococcus epidermidis; assay: Antibacterial activity against ciprofloxacin-susceptible and methicillin-resistant Staphylococcus epidermidis by CLSI M100-S18 method; format: functional
[20] = test system: Streptococcus sanguinis; assay: Antibacterial activity against Streptococcus sanguinis by CLSI M100-S18 method; format: functional
[21] = test system: Moraxella catarrhalis; assay: Antibacterial activity against Moraxella catarrhalis by CLSI M7-A7 method; format: functional
[22] = test system: Haemophilus influenzae; assay: Antibacterial activity against ciprofloxacin-susceptible Haemophilus influenzae assessed as percent susceptible isolates by CLSI M7-A7 method; format: functional
[23] = test system: Streptococcus sp.; assay: Antibacterial activity against Lancefield Streptococcus sp. group F by CLSI M100-S18 method; format: functional
[24] = test system: Streptococcus constellatus; assay: Antibacterial activity against Streptococcus constellatus by CLSI M100-S18 method; format: functional
[25] = test system: Streptococcus salivarius; assay: Antibacterial activity against Streptococcus salivarius by CLSI M100-S18 method; format: functional
[26] = test system: Legionella pneumophila; assay: Antibacterial activity against Legionella pneumophila by CLSI M7-A7 method; format: functional
[27] = test system: Klebsiella oxytoca; assay: Antibacterial activity against Klebsiella oxytoca by CLSI M7-A7 method; format: functional
[28] = test system: Acinetobacter baumannii; assay: Antibacterial activity against Acinetobacter baumannii by CLSI M7-A7 method; format: functional
[29] = test system: Acinetobacter calcoaceticus; assay: Antibacterial activity against Acinetobacter calcoaceticus by CLSI M7-A7 method; format: functional
[30] = test system: Staphylococcus saprophyticus; assay: Antibacterial activity against Staphylococcus saprophyticus assessed as percent susceptible isolates by CLSI M100-S18 method; format: functional
[31] = test system: Proteus mirabilis; assay: Antibacterial activity against Proteus mirabilis assessed as percent susceptible isolates by CLSI M7-A7 method; format: functional
[32] = test system: Staphylococcus aureus; assay: Antibacterial activity against non-ciprofloxacin-susceptible and methicillin-susceptible Staphylococcus aureus by CLSI M100-S18 method; format: functional
[33] = test system: Klebsiella aerogenes; assay: Antibacterial activity against Enterobacter aerogenes assessed as percent susceptible isolates by CLSI M7-A7 method; format: functional
[34] = test system: Staphylococcus epidermidis; assay: Antibacterial activity against non-ciprofloxacin-susceptible and methicillin-susceptible Staphylococcus epidermidis assessed as percent susceptible isolates by CLSI M100-S18 method; format: functional
[35] = test system: Serratia marcescens; assay: Antibacterial activity against levofloxacin susceptible Serratia marcescens assessed as percent susceptible isolates by CLSI M7-A7 method; format: functional
[36] = test system: Enterococcus faecium; assay: Antibacterial activity against vancomycin- resistant Enterococcus faecium by CLSI M100-S18 method; format: functional
[37] = test system: Klebsiella aerogenes; assay: Antibacterial activity against Enterobacter aerogenes by CLSI M7-A7 method; format: functional
[38] = test system: Staphylococcus hominis; assay: Antibacterial activity against Staphylococcus hominis by CLSI M100-S18 method; format: functional
[39] = test system: Staphylococcus epidermidis
[40] = test system: Klebsiella pneumoniae; assay: Antibacterial activity against Klebsiella pneumoniae assessed as percent susceptible isolates by CLSI M7-A7 method; format: functional
[41] = Antibacterial activity against Lancefield Streptococcus sp. 'group G' by CLSI M100-S18 method; format: functional
[42] = test system: Haemophilus influenzae; assay: Antibacterial activity against non-ciprofloxacin-susceptible Haemophilus influenzae assessed as percent susceptible isolates by CLSI M7-A7 method; format: functional
[43] = test system: Staphylococcus lugdunensis; assay: Antibacterial activity against Staphylococcus lugdunensis assessed as percent susceptible isolates by CLSI M100-S18 method; format: functional
[44] = test system: Haemophilus influenzae; assay: Antibacterial activity against non-ciprofloxacin-susceptible Haemophilus influenzae by CLSI M7-A7 method; format: functional
[45] = test system: Serratia marcescens; assay: Antibacterial activity against Serratia marcescens by CLSI M7-A7 method; format: functional
[46] = test system: Streptococcus equinus; assay: Antibacterial activity against Streptococcus bovis by CLSI M100-S18 method; format: functional

SMILES: NC[C@H]1O[C@H](O[C@H]2[C@H](O)[C@@H](O[C@H]3O[C@H](CO)[C@@H](O)[C@H](N)[C@H]3O)[C@H](N)C[C@@H]2N)[C@H](N)C[C@@H]1O [TOBRAMYCIN]
- Activity [1]: 100%
- MIC50 [2]: 0.06 µg/mL (≈ 0.128 µM)
- MIC90 [2]: > 8 µg/mL
- MIC50 [3]: 0.12 µg/mL (≈ 0.257 µM)
- MIC90 [3]: 32 µg/mL (≈ 68.4 µM)
- MIC50 [4]: 0.25 µg/mL (≈ 0.535 µM)
- MIC90 [4]: 0.5 µg/mL (≈ 1.07 µM)
- MIC50 [5]: 0.06 µg/mL (≈ 0.128 µM)
- MIC90 [5]: > 8 µg/mL
- MIC50 [6]: 16 µg/mL (≈ 34.2 µM)
- MIC90 [6]: 16 µg/mL (≈ 34.2 µM)
- Activity [7]: inactive
- MIC50 [8]: 16 µg/mL (≈ 34.2 µM)
- MIC90 [8]: 32 µg/mL (≈ 68.4 µM)
- MIC50 [9]: 8 µg/mL (≈ 17.1 µM)
- MIC90 [9]: 16 µg/mL (≈ 34.2 µM)
- MIC50 [10]: 1 µg/mL (≈ 2.14 µM)
- MIC90 [10]: 4 µg/mL (≈ 8.56 µM)
- MIC50 [11]: 0.5 µg/mL (≈ 1.07 µM)
- MIC90 [11]: 1 µg/mL (≈ 2.14 µM)
- MIC50 [12]: 0.06 µg/mL (≈ 0.128 µM)
- MIC90 [12]: 8 µg/mL (≈ 17.1 µM)
- MIC50 [13]: 16 µg/mL (≈ 34.2 µM)
- MIC90 [13]: > 128 µg/mL
- MIC50 [14]: 0.06 µg/mL (≈ 0.128 µM)
- MIC90 [14]: > 8 µg/mL
- Activity [15]: 68.4%
- MIC50 [16]: 1 µg/mL (≈ 2.14 µM)
- MIC90 [16]: 4 µg/mL (≈ 8.56 µM)
- MIC50 [17]: 2 µg/mL (≈ 4.28 µM)
- MIC90 [17]: 32 µg/mL (≈ 68.4 µM)
- MIC50 [18]: 0.12 µg/mL (≈ 0.257 µM)
- MIC90 [18]: 0.12 µg/mL (≈ 0.257 µM)
- MIC50 [19]: 0.03 µg/mL (≈ 0.0642 µM)
- MIC50 [20]: 0.06 µg/mL (≈ 0.128 µM)
- MIC90 [20]: > 8 µg/mL
- MIC50 [21]: 0.03 µg/mL (≈ 0.0642 µM)
- MIC90 [21]: 0.03 µg/mL (≈ 0.0642 µM)
- Activity [22]: inactive
- MIC50 [23]: 0.06 µg/mL (≈ 0.128 µM)
- MIC90 [23]: > 8 µg/mL
- MIC50 [24]: 0.06 µg/mL (≈ 0.128 µM)
- MIC90 [24]: > 8 µg/mL
- MIC50 [25]: 0.06 µg/mL (≈ 0.128 µM)
- MIC90 [25]: > 8 µg/mL
- MIC50 [26]: 0.12 µg/mL (≈ 0.257 µM)
- MIC90 [26]: 1 µg/mL (≈ 2.14 µM)
- MIC50 [27]: 0.5 µg/mL (≈ 1.07 µM)
- MIC90 [27]: 1 µg/mL (≈ 2.14 µM)
- MIC50 [28]: 4 µg/mL (≈ 8.56 µM)
- MIC90 [28]: > 64 µg/mL
- MIC50 [29]: 0.25 µg/mL (≈ 0.535 µM)
- MIC90 [29]: 1 µg/mL (≈ 2.14 µM)
- Activity [30]: 54.5%
- Activity [31]: 100%
- MIC50 [32]: 1 µg/mL (≈ 2.14 µM)
- MIC90 [32]: > 32 µg/mL
- Activity [33]: 100%
- Activity [34]: 16.7%
- Activity [35]: 100%
- MIC50 [36]: > 128 µg/mL
- MIC90 [36]: > 128 µg/mL
- MIC50 [37]: 0.5 µg/mL (≈ 1.07 µM)
- MIC90 [37]: 8 µg/mL (≈ 17.1 µM)
- MIC50 [38]: 16 µg/mL (≈ 34.2 µM)
- MIC90 [38]: 32 µg/mL (≈ 68.4 µM)
- MIC90 [39]: inactive
- Activity [40]: 100%
- MIC50 [41]: 0.06 µg/mL (≈ 0.128 µM)
- MIC90 [41]: > 8 µg/mL
- Activity [42]: inactive
- Activity [43]: 46.7%
- MIC50 [44]: 4 µg/mL (≈ 8.56 µM)
- MIC90 [44]: 8 µg/mL (≈ 17.1 µM)
- MIC50 [45]: 0.5 µg/mL (≈ 1.07 µM)
- MIC90 [45]: 1 µg/mL (≈ 2.14 µM)
- MIC50 [46]: 0.06 µg/mL (≈ 0.128 µM)
- MIC90 [46]: > 8 µg/mL
